This test addresses mitochondrial ceramidase (Rattus norvegicus, UniProt Q91XT9). As to the kind of experiment: mitochondrial ceramidase (mt-CDase) activity, radioactive assay or HPLC assay. The format is biochemical. The settings on record: for effect on mt-CDase activity (in words): concentrations as stated at the place; for IC50 (50% inhibition of mt-CDase activity): substrate D-erythro-ceramide 0.625 mole %; for inhibition at 50 µM: read-out: inhibition (maximal inhibition) of mt-CDase activity; for type of inhibition (double reciprocal analysis: Km increased, Vmax unchanged): varying D-erythro-ceramide concentration. The protocol:
The enzymatic activity of mitochondrial ceramidase was determined by either one of the two following methods:
a. Radioactive assay: The mt-CDase activity was determined by measuring the release of radioactive fatty acid from tritiated ceramide ([^3H]-C16-Cer), labeled in the acyl chain. Briefly, organic solutions of ceramide and its analogues were initially mixed together, solvents were completely evaporated under nitrogen, then the dried lipids were dispersed in Triton-X 100 by sonication and vigorous vortexing. The reaction assay contained (in a final volume of 200 μl): enzyme (5-10 ng) and 10 nmoles of tritiated C16-ceramide (1×10^5 dpm) delivered in 100 μl of 1% Triton X-100 micelles in a glycine buffer pH 9.5 (200 mM).
b. HPLC-assay: The Mt-CDase activity was also determined by measuring the amount of sphingosine released. Basically the assay was initially the same as described above but using non-radioactive ceramide. The reaction was stopped with 800 μl of chloroform: methanol (2:1 v/v) mixture followed by the addition of phyto-sphingosine (0.5 nmoles) and dihydro-sphingosine (1 nmole) as internal standard and carrier, respectively. The reaction mix was then extracted with NaOH (50 μl, 1N), and the lower chloroform layer containing the sphingosine was further washed with water (100 μl) and dried. The released sphingosine was quantified as the ortho-phthaldehyde (OPA) derivatives as described (30). […] The solvent system was methyl alcohol: potassium phosphate buffer (5 mM), pH 7.0 (90:10 v/v) at a flow rate of 1 ml/min. […] Activity was determined relative to the phytosphingosine OPA peak.
The effects of various compounds of the invention which are stereochemical and structural analogues of ceramide and sphingosine on mt-CDase were investigated. […] Results were expressed as percent of the control ceramidase activity.

Where [1] appears, read: Table 1, ceramide analogues, hydrolysis of D-erythro-C16 or C18-ceramide at 0.625 mole % (50 μM).
Setting [2] is: Table 2, sphingosine analogues, hydrolysis of D-erythro-ceramide at 0.625 mole % (50 μM).
The mark [3] stands for this setting: inhibitor at 0.625 mole % (50 μM).

Data on twelve compounds can be found in patent US20050043534A1, “Modulators of ceramidase and methods of used based thereon” (priority 2001, published 2005).

Where “and” joins values, the source holds several entries; their conditions need not be identical. Equal entries are not always repeated. Entries after “also recorded” stand apart in the source; their conditions may differ.

In general, inhibition refers to the percentage by which the read-out fell short of the control.

Chain of mitochondrial ceramidase (Q91XT9 whole entry): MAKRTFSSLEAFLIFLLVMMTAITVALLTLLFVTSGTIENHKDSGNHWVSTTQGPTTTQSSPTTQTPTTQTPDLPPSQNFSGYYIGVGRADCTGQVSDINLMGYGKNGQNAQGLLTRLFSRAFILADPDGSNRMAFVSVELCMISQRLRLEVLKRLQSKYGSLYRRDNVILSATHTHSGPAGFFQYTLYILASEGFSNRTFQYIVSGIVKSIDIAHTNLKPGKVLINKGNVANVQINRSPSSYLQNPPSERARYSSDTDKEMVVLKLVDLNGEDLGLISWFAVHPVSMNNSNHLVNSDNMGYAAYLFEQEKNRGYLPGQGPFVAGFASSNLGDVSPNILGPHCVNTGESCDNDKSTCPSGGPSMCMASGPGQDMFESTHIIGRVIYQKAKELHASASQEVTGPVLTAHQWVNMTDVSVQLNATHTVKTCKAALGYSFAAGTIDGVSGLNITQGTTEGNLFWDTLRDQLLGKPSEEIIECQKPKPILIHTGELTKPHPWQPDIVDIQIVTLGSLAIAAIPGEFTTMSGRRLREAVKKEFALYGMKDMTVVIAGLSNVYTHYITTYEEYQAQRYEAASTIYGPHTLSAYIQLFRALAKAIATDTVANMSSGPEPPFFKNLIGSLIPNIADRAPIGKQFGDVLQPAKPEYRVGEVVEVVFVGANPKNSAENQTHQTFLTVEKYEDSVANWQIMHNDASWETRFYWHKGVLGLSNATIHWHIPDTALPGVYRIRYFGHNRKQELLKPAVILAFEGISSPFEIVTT

Turning to `CCCCCCCCCCCCC/C=C/[C@@H](O)[C@H](CO)NC(=O)CCCCCCCCCCCCCCCCC` [D-e-C18-Cer, D-erythro-C18-ceramide, reference compound], under setting [1], the “Estimated IC50 (mole %)” value is “substrate”.

As for `CCCCCCCCCCCCCCCC(=O)C(N)CO` (stereo not shown) [3-keto-dh-Sph, 3-keto-dihydrosphingosine], the “effect on mt-CDase activity (in words)” value is on record as “potent inhibitor” and the “IC50 (50% inhibition of mt-CDase activity)” value is 0.34 mole %. Also, under setting [2], the “Estimated IC50 (mole %)” value is reported as 0.2 mole %. Besides, the “inhibition (maximal inhibition) of mt-CDase activity” value under setting [3] is on record as 75%.

In the case of `CCCCCCCCCCCCC/C=C/[C@@H](O)[C@H](CO)N(C)C` [N,N-diMe-Sph, N,N-dimethyl-D-erythro-sphingosine], the “effect on mt-CDase activity (in words)” value is given as “weaker; also recorded: profound loss of activity”. Further, the “Estimated IC50 (mole %)” value under setting [2] is on record as “weak”. The “maximal inhibition of mt-CDase” value (inhibitor at 2.5 mole %) came out at 30%.

On to `CCCCCCCCCCCCC/C=C/[C@@H](O)[C@@H](N)COC` [Compound 1-O-Me-Sph, 1-O-methyl-D-erythro-sphingosine], for which the “effect on mt-CDase activity (in words)” value is on record as “weaker”. Also, the “Estimated IC50 (mole %)” value under setting [2] is listed as “weak”. The “inhibition of mt-CDase activity” value (inhibitor at 0.6 mole %) is recorded as roughly 25%.

On to `CCCCCCCCCCCCC/C=C\[C@@H](O)[C@@H](N)CO` [cis-D-e-Sph, cis-D-erythro-sphingosine], for which the “effect on mt-CDase activity (in words)” value is reported as “weaker; also recorded: no effect; also recorded: weak inhibitor”. Moreover, the “Estimated IC50 (mole %)” value under setting [2] is recorded as “weak”. In addition, the “maximal inhibition of ceramide hydrolysis” value (at higher concentrations, greater than 2 mole %) was determined as 32%. For the same compound, the inhibition at 50 µM under setting [3] is 10%.

Consider `CCCCCCCCCCCCC/C=C/C(=O)[C@H](CO)NC(=O)CCCCCCCCCCCCCCC` [3-keto-C16-Cer, 3-keto-C16-ceramide], for which the “hydrolysis by mt-CDase (substrate or not, in words)” value is “served as a substrate”; the “IC50 (50% inhibition of mt-CDase activity)” value worked out at 0.60 mole %; the “type of inhibition (double reciprocal analysis: Km increased, Vmax unchanged)” value is reported as “competitive substrate”. Moreover, the “Estimated IC50 (mole %)” value under setting [1] is 0.6 mole %. Moreover, the inhibition at 50 µM under setting [3] amounted to 53%.

For the compound `CCCCCCCCCCCCC/C=C/[C@@H](O)[C@H](CO)N(C)C(=O)CCCCCCCCCCCCCCC` [N-Me-C16-Cer, N-methyl-D-erythro-C16-ceramide], the “Estimated IC50 (mole %)” value under setting [1] is “no effect”. The “effect on mt-CDase activity (in words)” value runs as follows: (listed as N-Me-Cer) “loss of the interaction”; (listed as N-Me-ceramide) “do not interact with the enzyme”; (listed as N-methyl-ceramide) “did not affect ceramidase activity”.

Consider `CCCCCCCCCCCCC/C=C/[C@@H](OC)[C@H](CO)NC(=O)CCCCCCCCCCCCCCC` [3-O-Me-C16-Cer, 3-O-methyl-D-erythro-C16-ceramide], for which the “Estimated IC50 (mole %)” value under setting [1] was “no effect”. The “effect on mt-CDase activity (in words)” value is “do not interact with the enzyme” (listed as 3-O-Me-ceramide) and “no effect” (listed as 3-O-methyl ceramide).

As for `CCCCCCCCCCCCC/C=C/[C@H](O)[C@@H](N)CO` [L-t-Sph, L-threo-sphingosine], under setting [2], the “Estimated IC50 (mole %)” value is recorded as 0.14 mole %. The “extent of inhibition of ceramidase” value (sphingosine stereoisomers at higher concentrations (FIG. 4b)) is reported as 60%.

With `CCCCCCCCCCCCC/C=C/[C@@H](O)[C@H](CO)NCCCCCCCCCCCCCCCCCC` [Compound C18-Ceramine, N-stearyl-D-erythro-sphingosine], the “type of inhibition (double reciprocal analysis: Km increased, Vmax unchanged)” value was “competitive inhibitor”. For the same compound, the “Estimated IC50 (mole %)” value under setting [2] is reported as 0.5 mole %. In addition, the inhibition at 100 µM (inhibitor at 1.25 mole % (100 μM)) was 75%.

On to `CCCCCCCCCCCCCCC[C@@H](O)[C@@H](N)CO` [D-e-dh-Sph, D-erythro-dihydrosphingosine], for which the “IC50 (50% inhibition of mt-CDase activity)” value was 0.20 mole % and 0.34 mole %. The “Estimated IC50 (mole %)” value under setting [2] is given as 0.34 mole %.

`CCCCCCCCCCCCCC#C[C@@H](O)[C@@H](N)CO` [D-e-deh-Sph, D-erythro-dehydrosphingosine]: the “IC50 (50% inhibition of mt-CDase activity)” value came out at 0.25 mole %. For the same compound, the “Estimated IC50 (mole %)” value under setting [2] is 0.25 mole %. Further, the inhibition at 50 µM under setting [3] worked out at 75%.
